Laboratory results from patent US20170050957A1, “4-AMINO-6-(HETEROCYCLIC)PICOLINATES AND 6-AMINO-2-(HETEROCYCLIC)PYRIMIDINE-4-CARBOXYLATES AND THEIR USE AS HERBICIDES” (Dow AgroSciences LLC, priority 2013, published 2017).
Read-outs that look alike come from different tables or passages of the source.

What was measured:
[1] = test system: Key Grass and Sedge Weeds as well as Grass Crops; experiment: Post-emergent Test II herbicidal activity (Table 16); format: in vivo; conditions: post-emergence, 336 h, 14 days after application; for pest or weed control at 35 g/ha: 35 g ai/ha; for pest or weed control at 70 g/ha: 70 g ai/ha; for pest or weed control at 140 g/ha: 140 g ai/ha
Method in brief: (§1)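 Plants grown in greenhouse (~15 h photoperiod, 23-29 °C day, 22-28 °C night) to first or second true leaf stage, then sprayed post-emergence at 187 L/ha with a high rate and 1/2×, 1/4×, 1/8× and 1/16× dilutions. Injury scored visually after 14 d, 0-100% versus untreated plants.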

[2] = test system: Key Broadleaf Weed and Crop Species; experiment: Post-emergent Test II herbicidal activity (Table 15); format: in vivo; conditions: post-emergence, 336 h, 14 d; for pest or weed control at 35 g/ha: 35 g ai/ha; for pest or weed control at 70 g/ha: 70 g ai/ha; for pest or weed control at 140 g/ha: 140 g ai/ha
Method in brief: as §1

[3] = Cyperus esculentus, yellow nutsedge (Cyperus esculentus), read-out: Visual Growth Reduction (%) 14 Days After Application CYPES
[4] = Echinochloa crus-galli, barnyardgrass (Echinochloa crus-galli), read-out: Visual Growth Reduction (%) 14 Days After Application ECHCG
[5] = Oryza sativa, rice (Oryza sativa), read-out: Visual Growth Reduction (%) 14 Days After Application ORYSA
[6] = Setaria faberi, giant foxtail (Setaria faberi), read-out: Visual Growth Reduction (%) 14 Days After Application SETFA
[7] = Triticum aestivum, wheat, spring (Triticum aestivum), read-out: Visual Growth Reduction (%) 14 Days After Application TRZAS
[8] = Zea mays, maize, corn (Zea mays), read-out: Visual Growth Reduction (%) 14 Days After Application ZEAMX
[9] = Abutilon theophrasti, velvetleaf (Abutilon theophrasti), read-out: Visual Growth Reduction (%) 14 Days After Application, ABUTH
[10] = Amaranthus retroflexus, redroot pigweed (Amaranthus retroflexus), read-out: Visual Growth Reduction (%) 14 Days After Application, AMARE
[11] = Brassica napus, oilseed rape, canola (Brassica napus), read-out: Visual Growth Reduction (%) 14 Days After Application, BRSNN
[12] = Chenopodium album, lambsquarters (Chenopodium album), read-out: Visual Growth Reduction (%) 14 Days After Application, CHEAL
[13] = Euphorbia heterophylla, wild poinsettia (Euphorbia heterophylla), read-out: Visual Growth Reduction (%) 14 Days After Application, EPHHL
[14] = Helianthus annuus, sunflower (Helianthus annuus), read-out: Visual Growth Reduction (%) 14 Days After Application, HELAN

SMILES: COc1c(N)nc(-c2ccc3sccc3c2)nc1C(=O)O [Compound 3.09]
- pest or weed control at 35 g/ha [1, 3]: 0 to 29%
- pest or weed control at 70 g/ha [1, 3]: 0 to 29%
- pest or weed control at 140 g/ha [1, 3]: 0 to 29%
- pest or weed control at 35 g/ha [1, 4]: 85 to 94%
- pest or weed control at 70 g/ha [1, 4]: 85 to 94%
- pest or weed control at 140 g/ha [1, 4]: 85 to 94%
- pest or weed control at 35 g/ha [1, 5]: 0 to 29%
- pest or weed control at 70 g/ha [1, 5]: 0 to 29%
- pest or weed control at 140 g/ha [1, 5]: 0 to 29%
- pest or weed control at 35 g/ha [1, 6]: 0 to 29%
- pest or weed control at 70 g/ha [1, 6]: 0 to 29%
- pest or weed control at 140 g/ha [1, 6]: 0 to 29%
- pest or weed control at 35 g/ha [1, 7]: 60 to 74%
- pest or weed control at 70 g/ha [1, 7]: 75 to 84%
- pest or weed control at 140 g/ha [1, 7]: 85 to 94%
- pest or weed control at 35 g/ha [1, 8]: 60 to 74%
- pest or weed control at 70 g/ha [1, 8]: 75 to 84%
- pest or weed control at 140 g/ha [1, 8]: 85 to 94%
- pest or weed control at 35 g/ha [2, 9]: 0 to 29%
- pest or weed control at 70 g/ha [2, 9]: 0 to 29%
- pest or weed control at 140 g/ha [2, 9]: 45 to 59%
- pest or weed control at 35 g/ha [2, 10]: 30 to 44%
- pest or weed control at 70 g/ha [2, 10]: 75 to 84%
- pest or weed control at 140 g/ha [2, 10]: 85 to 94%
- pest or weed control at 35 g/ha [2, 11]: 45 to 59%
- pest or weed control at 70 g/ha [2, 11]: 85 to 94%
- pest or weed control at 140 g/ha [2, 11]: 95 to 100%
- pest or weed control at 35 g/ha [2, 12]: 85 to 94%
- pest or weed control at 70 g/ha [2, 12]: 85 to 94%
- pest or weed control at 140 g/ha [2, 12]: 95 to 100%
- pest or weed control at 35 g/ha [2, 13]: 95 to 100%
- pest or weed control at 70 g/ha [2, 13]: 95 to 100%
- pest or weed control at 140 g/ha [2, 13]: 95 to 100%
- pest or weed control at 35 g/ha [2, 14]: 60 to 74%
- pest or weed control at 70 g/ha [2, 14]: 75 to 84%
- pest or weed control at 140 g/ha [2, 14]: 85 to 94%
- melting point: 137 to 139 °C
